Measurements: patent publication US20260295053A1, “COMPOUNDS FOR DEGRADATION AND INHIBITION OF KRAS (G12D) PROTEIN” (Shenzhen Ionova Life Science Co., Ltd., priority 2023, published 2026)

Target: T1, KRAS (G12D) (Homo sapiens, UniProt P01116, G12D)
T1 construct: in-cell western with KRAS G12D antibody after 24 h
Assay: KRAS (G12D) cellular degradation assay in AsPC-1 cells
Format: cell-based
Conditions: 24 hours, antibody fluorescence (Odyssey CLX), DC50 half-maximal degradation concentration
Procedure, shortened: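 AsPC-1 cells were seeded at 22,000/well for degradation and 3,500/well for proliferation. Compounds in 1:3 dilutions ([…] to 1.5 nM final) ran 24 h for degradation, read by in-cell immunofluorescence of KRAS G12D normalised to β-actin, and 6 days for proliferation (CellTiter Glo luminescence). DC50/IC50 came from dose-response fits.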

T1 sequence (P01116 1-188 isoform P01116-2 G12D): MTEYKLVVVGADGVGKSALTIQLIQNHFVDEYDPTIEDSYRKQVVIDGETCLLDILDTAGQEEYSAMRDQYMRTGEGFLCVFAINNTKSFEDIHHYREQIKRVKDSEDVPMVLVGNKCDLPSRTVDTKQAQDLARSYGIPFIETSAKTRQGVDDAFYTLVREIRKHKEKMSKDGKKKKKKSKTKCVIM

Compound	DC50
CCn1nccc1-c1ccc([C@@H](NC(=O)[C@@H]2C[C@@H](O)CN2C(=O)[C@H](C(C)C)n2cc(-c3ccc(COc4c(-c5c(C)c(F)cc6[nH]ncc56)c(C5CC5)cc5c(N6C[C@@H]7C[C@H]6CN7)nc(O[C@H]6C[C@H](OC)C6)nc45)cc3)nn2)[C@H](C)O)nc1 [Example 200, (2S,4R)-1-((2S)-2-(4-(4-(((4-((1S,4S)-2,5-diazabicyclo[2.2.1]heptan-2-yl)-6-cyclopropyl-7-(6-fluoro-5-methyl-1H-indazol-4-yl)-2-((1r,3S)-3-methoxycyclobutoxy)quinazolin-8-yl)oxy)methyl)phenyl)-1H-1,2,3-triazol-1-yl)-3-methylbutanoyl)-N-((1R,2S)-1-(5-(1-ethyl-1H-pyrazol-5-yl)pyridin-2-yl)-2-hydroxypropyl)-4-hydroxypyrrolidine-2-carboxamide]	< 10 nM
CCn1nccc1-c1ccc([C@H](CO)NC(=O)[C@@H]2C[C@@H](O)CN2C(=O)[C@H](C(C)C)n2cc(-c3ccc(COc4c(-c5c(C)c(F)cc6[nH]ncc56)c(C5CC5)cc5c(N6CC7CNCC7C6)nc(OC[C@H](C)OC)nc45)cc3)nn2)cc1 (stereo partly drawn) [Example 227, (2S,4R)-1-((2S)-2-(4-(4-(((6-cyclopropyl-7-(6-fluoro-5-methyl-1H-indazol-4-yl)-4-(hexahydropyrrolo[3,4-c]pyrrol-2(1H)-yl)-2-((S)-2-methoxypropoxy)quinazolin-8-yl)oxy)methyl)phenyl)-1H-1,2,3-triazol-1-yl)-3-methylbutanoyl)-N—((R)-1-(4-(1-ethyl-1H-pyrazol-5-yl)phenyl)-2-hydroxyethyl)-4-hydroxypyrrolidine-2-carboxamide]	10 to 100 nM
CCn1nccc1-c1ccc([C@H](CO)NC(=O)[C@@H]2C[C@@H](O)CN2C(=O)[C@H](C(C)C)n2cc(-c3ccc(COc4c(-c5c(C)c(F)cc6[nH]ncc56)c(C5CCC5)cc5c(N6C[C@@H]7C[C@H]6CN7)nc(OC6CCC7(CC6)COC7)nc45)cc3)nn2)cc1 [Example 137, (2S,4R)-1-((2S)-2-(4-(4-(((2-((2-oxaspiro[3.5]nonan-7-yl)oxy)-4-((1S,4S)-2,5-diazabicyclo[2.2.1]heptan-2-yl)-6-cyclobutyl-7-(6-fluoro-5-methyl-1H-indazol-4-yl)quinazolin-8-yl)oxy)methyl)phenyl)-1H-1,2,3-triazol-1-yl)-3-methylbutanoyl)-N—((R)-1-(4-(1-ethyl-1H-pyrazol-5-yl)phenyl)-2-hydroxyethyl)-4-hydroxypyrrolidine-2-carboxamide]	< 10 nM
CO[C@@H](C)COc1nc(N2C[C@@H]3C[C@H]2CN3)c2cc(C3CC3)c(-c3c(C)c(F)cc4[nH]ncc34)c(OCc3ccc(-c4cn([C@H](C(=O)N5C[C@H](O)C[C@H]5C(=O)N[C@H](C#Cc5cnccc5Cl)CO)C(C)C)nn4)cc3)c2n1 [Example 108, (2S,4R)-1-((2S)-2-(4-(4-(((4-((1S,4S)-2,5-diazabicyclo[2.2.1]heptan-2-yl)-6-cyclopropyl-7-(6-fluoro-5-methyl-1H-indazol-4-yl)-2-((S)-2-methoxypropoxy)quinazolin-8-yl)oxy)methyl)phenyl)-1H-1,2,3-triazol-1-yl)-3-methylbutanoyl)-N—((R)-4-(4-chloropyridin-3-yl)-1-hydroxybut-3-yn-2-yl)-4-hydroxypyrrolidine-2-carboxamide]	10 to 100 nM
CO[C@@H](C)COc1nc(N2C[C@H]3C[C@@H]2CN3)c2cc(C3CC3)c(-c3c(C)c(F)cc4[nH]ncc34)c(OCc3ccc(-c4cn([C@H](C(=O)N5C[C@H](O)C[C@H]5C(=O)NCc5ccc(-c6scnc6C)cc5)C(C)C)nn4)cc3)c2n1 (single isomer, unassigned) [Example 11B]	> 1000 nM
CCn1nccc1-c1ccc([C@H](CO)NC(=O)[C@@H]2C[C@@H](O)CN2C(=O)[C@H](C(C)C)n2cc(-c3ccc(COc4c(-c5c(C)c(F)cc6[nH]ncc56)c(C5CC5)cc5c(N6CCC(C#N)CC6)nc(OC[C@H](C)OC)nc45)cc3)nn2)cc1 [Example 174, (2S,4R)-1-((2S)-2-(4-(4-(((4-(4-cyanopiperidin-1-yl)-6-cyclopropyl-7-(6-fluoro-5-methyl-1H-indazol-4-yl)-2-((S)-2-methoxypropoxy)quinazolin-8-yl)oxy)methyl)phenyl)-1H-1,2,3-triazol-1-yl)-3-methylbutanoyl)-N—((R)-1-(4-(1-ethyl-1H-pyrazol-5-yl)phenyl)-2-hydroxyethyl)-4-hydroxypyrrolidine-2-carboxamide]	10 to 100 nM
CO[C@@H](C)COc1nc(N2C[C@@H]3C[C@H]2CN3)c2cc(C3CC3)c(-c3c(C)c(F)cc4[nH]ncc34)c(OCc3ccc(-c4cn([C@H](C(=O)N5C[C@H](O)C[C@H]5C(=O)N[C@H](C#Cc5cncc6nn(C)cc56)CO)C(C)C)nn4)cc3)c2n1 [Example 185, (2S,4R)-1-((2S)-2-(4-(4-(((4-((1S,4S)-2,5-diazabicyclo[2.2.1]heptan-2-yl)-6-cyclopropyl-7-(6-fluoro-5-methyl-1H-indazol-4-yl)-2-((S)-2-methoxypropoxy)quinazolin-8-yl)oxy)methyl)phenyl)-1H-1,2,3-triazol-1l-yl)-3-methylbutanoyl)-4-hydroxy-N—((R)-1-hydroxy-4-(2-methyl-2H-pyrazolo[3,4-c]pyridin-4-yl)but-3-yn-2-yl)pyrrolidine-2-carboxamide]	10 to 100 nM
Cc1ncsc1-c1ccc([C@H](CO)NC(=O)[C@@H]2C[C@@H](O)CN2C(=O)[C@H](C(C)C)n2cc(-c3ccc(COc4c(-c5c(C)c(F)cc6[nH]ncc56)c(C5CC5)cc5c(N6C[C@H]7C[C@@H]6CN7)nc(OC6CCOCC6)nc45)cc3)nn2)cc1 (single isomer, unassigned) [Example 5A]	< 10 nM
CCn1nccc1-c1ccc([C@H](CO)NC(=O)[C@@H]2C[C@@H](O)CN2C(=O)[C@H](C(C)C)n2cc(-c3ccc(COc4c(-c5c(C)c(F)cc6[nH]ncc56)c(C5CC5)cc5c(N6C[C@H]7CN[C@H](C7)C6)nc(OC[C@H](C)OC)nc45)cc3)nn2)cc1 [Example 222, (2S,4R)-1-((2S)-2-(4-(4-(((4-((1R,5R)-3,6-diazabicyclo[3.2.1]octan-3-yl)-6-cyclopropyl-7-(6-fluoro-5-methyl-1H-indazol-4-yl)-2-((S)-2-methoxypropoxy)quinazolin-8-yl)oxy)methyl)phenyl)-1H-1,2,3-triazol-1-yl)-3-methylbutanoyl)-N—((R)-1-(4-(1-ethyl-1H-pyrazol-5-yl)phenyl)-2-hydroxyethyl)-4-hydroxypyrrolidine-2-carboxamide]	10 to 100 nM
CCn1nccc1-c1ccc([C@H](CO)NC(=O)[C@@H]2C[C@@H](O)CN2C(=O)[C@H](C(C)C)n2cc(-c3ccc(COc4c(-c5c(C)c(F)cc6[nH]ncc56)c(C5CC5)cc5c(N6CCC(NC(C)=O)CC6)nc(OC[C@H](C)OC)nc45)cc3)nn2)cc1 [Example 226, (2S,4R)-1-((2S)-2-(4-(4-(((4-(4-acetamidopiperidin-1-yl)-6-cyclopropyl-7-(6-fluoro-5-methyl-1H-indazol-4-yl)-2-((S)-2-methoxypropoxy)quinazolin-8-yl)oxy)methyl)phenyl)-1H-1,2,3-triazol-1-yl)-3-methylbutanoyl)-N—((R)-1-(4-(1-ethyl-1H-pyrazol-5-yl)phenyl)-2-hydroxyethyl)-4-hydroxypyrrolidine-2-carboxamide]	10 to 100 nM
CCn1nccc1-c1ccc([C@H](CO)NC(=O)[C@@H]2C[C@@H](O)CN2C(=O)[C@H](C(C)C)n2cc(-c3ccc(COc4c(-c5c(C)c(F)cc6[nH]ncc56)c(C5CC5)cc5c(N(C)C[C@@H]6CCCN6)nc(OC[C@H](C)OC)nc45)cc3)nn2)cc1 [Example 228, (2S,4R)-1-((2S)-2-(4-(4-(((6-cyclopropyl-7-(6-fluoro-5-methyl-1H-indazol-4-yl)-2-((S)-2-methoxypropoxy)-4-(methyl(((S)-pyrrolidin-2-yl)methyl)amino)quinazolin-8-yl)oxy)methyl)phenyl)-1H-1,2,3-triazol-1-yl)-3-methylbutanoyl)-N—((R)-1-(4-(1-ethyl-1H-pyrazol-5-yl)phenyl)-2-hydroxyethyl)-4-hydroxypyrrolidine-2-carboxamide]	< 10 nM
CO[C@@H](C)COc1nc(N2CCCNCC2)c2cc(C3CC3)c(-c3c(C)c(F)cc4[nH]ncc34)c(OCc3ccc(-c4cn([C@H](C(=O)N5C[C@H](O)C[C@H]5C(=O)N[C@@H](CO)c5ccc(-c6scnc6C)c6c5CC6)C(C)C)nn4)cc3)c2n1 [Example 219, (2S,4R)-1-((2S)-2-(4-(4-(((6-cyclopropyl-4-(1,4-diazepan-1-yl)-7-(6-fluoro-5-methyl-1H-indazol-4-yl)-2-((S)-2-methoxypropoxy)quinazolin-8-yl)oxy)methyl)phenyl)-1H-1,2,3-triazol-1-yl)-3-methylbutanoyl)-4-hydroxy-N—((R)-2-hydroxy-1-(5-(4-methylthiazol-5-yl)bicyclo[4.2.0]octa-1(6),2,4-trien-2-yl)ethyl)pyrrolidine-2-carboxamide]	< 10 nM
CCn1nccc1-c1ccc([C@H](CO)NC(=O)[C@@H]2C[C@@H](O)CN2C(=O)[C@H](C(C)C)n2cc(-c3ccc(COc4c(-c5c(C)c(F)cc6[nH]ncc56)c(C5CC5)cc5c(N6C[C@@H]7C[C@H]6CN7)nc(N6CC(OC)C6)nc45)cc3)nn2)cc1 [Example 126, (2S,4R)-1-((2S)-2-(4-(4-(((4-((1S,4S)-2,5-diazabicyclo[2.2.1]heptan-2-yl)-6-cyclopropyl-7-(6-fluoro-5-methyl-1H-indazol-4-yl)-2-(3-methoxyazetidin-1-yl)quinazolin-8-yl)oxy)methyl)phenyl)-1H-1,2,3-triazol-1-yl)-3-methylbutanoyl)-N—((R)-1-(4-(1-ethyl-1H-pyrazol-5-yl)phenyl)-2-hydroxyethyl)-4-hydroxypyrrolidine-2-carboxamide]	10 to 100 nM
